Measured values from ChEMBL document CHEMBL1201862, “PubChem BioAssay data set” (2004).
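Cells were grown in 96-well plates and exposed to each compound for 48 hours at five concentrations; endpoints were interpolated linearly between bracketing concentrations, or set to the highest concentration if not reached. GI50 is the concentration that inhibits growth by half.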 Active and inactive are the calls of the source. No stated cut-off is given here; in the data, active = GI50 up to about 1.1 µM and inactive = higher.

Experiments:
Assay in all cases: inhibition of tumour cell growth, NCI panel, 48 h
NCI-H522 = test system: NCI-H522
UO-31 = test system: UO-31
HOP-92 = test system: HOP-92
RXF 393 = test system: RXF 393
A549 = test system: A549
HCT-15 = test system: HCT-15
SNB-75 = test system: SNB-75
ACHN = test system: ACHN
SNB-19 = test system: SNB-19
SR = test system: SR
RPMI-8226 = test system: RPMI-8226
MDA-MB-231 = test system: MDA-MB-231
M14 = test system: M14
K562 = test system: K562
HOP-62 = test system: HOP-62
SK-OV-3 = test system: SK-OV-3
SK-MEL-2 = test system: SK-MEL-2

SMILES	GI50 (NCI-H522)	GI50 (UO-31)	GI50 (HOP-92)	GI50 (RXF 393)	GI50 (A549)	GI50 (HCT-15)	GI50 (SNB-75)	GI50 (ACHN)	GI50 (SNB-19)	GI50 (SR)	GI50 (RPMI-8226)	GI50 (MDA-MB-231)	GI50 (M14)	GI50 (K562)	GI50 (HOP-62)	GI50 (SK-OV-3)	GI50 (SK-MEL-2)
CO[C@@H]1C[C@H]2[C@@H]3CC[C@H]([C@H](C)COC(C)=O)[C@@]3(C)CC[C@@H]2[C@@]2(C)CC[C@H]3C[C@]312	> 100 µM (inactive)	> 100 µM (inactive)	73.5 µM (inactive)	> 100 µM (inactive)	> 100 µM (inactive)	> 100 µM	> 100 µM (inactive)	> 100 µM (inactive)	> 100 µM (inactive)	> 100 µM (inactive)	> 100 µM (inactive)	> 100 µM (inactive)	> 100 µM (inactive)	63.1 µM (inactive)	> 100 µM (inactive)		
COc1ccc(C2CC(c3ccc4ccccc4c3O)=NN2C(C)=O)cc1OC (stereo unspecified)	> 100 µM (inactive)	> 100 µM (inactive)	> 100 µM (inactive)	> 100 µM (inactive)	> 100 µM (inactive)	> 100 µM	> 100 µM (inactive)	> 100 µM (inactive)		19.1 µM (inactive)	> 100 µM (inactive)	> 100 µM (inactive)	> 100 µM (inactive)	78.5 µM (inactive)	> 100 µM (inactive)	> 100 µM (inactive)	> 100 µM (inactive)
CN/C(=N\c1ccc(OC)c2ccccc12)SC	> 10 µM (inactive)		> 10 µM (inactive)		> 10 µM (inactive)	> 10 µM	> 10 µM (inactive)	> 10 µM (inactive)	> 10 µM (inactive)	> 10 µM (inactive)	> 10 µM (inactive)	> 10 µM (inactive)	> 10 µM (inactive)	> 10 µM (inactive)	> 10 µM (inactive)	> 10 µM (inactive)	
O=C1CCCCC1CN1CCCCC1 (stereo unspecified)	1.91 µM (inactive)	> 100 µM (inactive)	> 100 µM (inactive)	> 100 µM (inactive)	> 100 µM (inactive)	> 100 µM	> 100 µM (inactive)	> 100 µM (inactive)	> 100 µM (inactive)	8.89 µM (inactive)		> 100 µM (inactive)	> 100 µM (inactive)	> 100 µM (inactive)	> 100 µM (inactive)	> 100 µM (inactive)	> 100 µM (inactive)
CCc1cccc(C(C)C)c1NC1=C([n+]2ccc(C)cc2)C(=O)c2ccccc2C1=O.[O-][Cl+3]([O-])([O-])[O-]	1.32 µM (inactive)	1.23 µM (inactive)	0.451 µM (active)	0.575 µM (active)	2.37 µM (inactive)	3.62 µM	1.75 µM (inactive)	0.275 µM (active)	1.83 µM (inactive)	0.0525 µM (active)	0.423 µM (active)	2.21 µM (inactive)	0.944 µM (active)	1.91 µM (inactive)	0.804 µM (active)	2.64 µM (inactive)	3.87 µM (inactive)
Oc1ccc(-c2nn3c(CCCCCCCCc4nnc5sc(-c6ccc(O)cc6)nn45)nnc3s2)cc1	> 100 µM (inactive)	> 100 µM (inactive)	> 100 µM (inactive)	> 100 µM (inactive)	> 100 µM (inactive)	> 100 µM	> 100 µM (inactive)	> 100 µM (inactive)	> 100 µM (inactive)	> 100 µM (inactive)	> 100 µM (inactive)	> 100 µM (inactive)	> 100 µM (inactive)	> 100 µM (inactive)	> 100 µM (inactive)	> 100 µM (inactive)	> 100 µM (inactive)
O=C/C=C/c1ccco1	> 100 µM (inactive)	> 100 µM (inactive)	> 100 µM (inactive)	> 100 µM (inactive)	> 100 µM (inactive)	> 100 µM	> 100 µM (inactive)	> 100 µM (inactive)	> 100 µM (inactive)	31.3 µM (inactive)	> 100 µM (inactive)	> 100 µM (inactive)	> 100 µM (inactive)	> 100 µM (inactive)	> 100 µM (inactive)	> 100 µM (inactive)	> 100 µM (inactive)
COC(=O)NC(Cc1ccccc1)NC(=O)OC(C)(C)C (stereo unspecified)	96.4 µM (inactive)	> 100 µM (inactive)	> 100 µM (inactive)	> 100 µM (inactive)	> 100 µM (inactive)	> 100 µM	> 100 µM (inactive)	> 100 µM (inactive)	> 100 µM (inactive)	> 100 µM (inactive)	> 100 µM (inactive)	> 100 µM (inactive)	> 100 µM (inactive)	> 100 µM (inactive)	> 100 µM (inactive)	> 100 µM (inactive)	> 100 µM (inactive)
CC(CN(C)C)C(O)(c1ccccc1)c1ccccc1 (stereo unspecified)	> 100 µM (inactive)	> 100 µM (inactive)	> 100 µM (inactive)	> 100 µM (inactive)	> 100 µM (inactive)	> 100 µM	> 100 µM (inactive)	> 100 µM (inactive)	> 100 µM (inactive)	> 100 µM (inactive)	> 100 µM (inactive)	> 100 µM (inactive)	> 100 µM (inactive)	> 100 µM (inactive)	> 100 µM (inactive)	> 100 µM (inactive)	> 100 µM (inactive)
